Source: patent US20150352111A1, “Therapeutic Indications of Kinase Inhibitors” (Pulmokine, Inc., priority 2013, published 2015)
Where “and” joins values, the source holds several entries; their conditions need not be identical. Equal values may be shown once. Entries after “also recorded” stand apart in the source; their conditions may differ. Read-outs that look alike come from different tables or passages of the source. Marks after values point to notes of the source that are not given here.

Legend:
[1] = test system: Human pulmonary artery smooth muscle cells; assay: PASMC proliferation assay (Cyquant NF); format: cell-based; conditions: PDGF BB 50 ng/ml, 24 hours, read-out: IC50, PDGF BB stimulated human PA SMC proliferation
Protocol: PASMC Proliferation Assay.
Human pulmonary artery smooth muscle cells were obtained from Cell Applications (San Diego, Calif.) and grown to 50% confluence in a 96 well format. The cells were switched to serum free media 24 hours prior to stimulation with PDGF BB 50 ng/ml and varying concentrations of PK10453. After 24 hours of treatment, a Cyquant NF Cell proliferation assay was performed (Invitrogen®), and the fluorescent signal was measured with a Cytofluor Plate reader. Data is based on an avg. of 8 replicates at each conc.

rat MCT+PN model of PAH [2] = assay: Rat MCT+PN model efficacy: PV loops, RV hypertrophy; format: in vivo; conditions: for HR / EF / ESP / CO / EDP / EDV / ESV / SV / SW: MCT+PN, mean, n=4; for EF / ESP: RV
Protocol: In a separate cohort of animals, the MCT+PN model was developed as described above, and PK10453 was then administered for 4 minutes or 8 minutes three times a day to the drug treated group. The vehicle control group underwent 4 minute exposures three times a day. Pressure Volume (PV) loops were obtained with an admittance system (Scisense, Inc.) after 14 days of treatment, while rats were under general anesthesia with isoflurane and 100% FiO2.
PV loop study. The RV end systolic pressure (ESP) was lower and the RV ejection fraction (EF) was higher in both the D4 and D8 treatment groups compared to vehicle control. Cardiac output in the D8 group was increased compared to the Vehicle group. The study animals underwent left pneumonectomy followed 7 days later by MCT 60 mg/kg IP. Two weeks after MCT administration, PK10453 or vehicle were given by inhalation three times a day for two weeks. PV loops were acquired at the end of this period. With respect to Table 3: V=vehicle; D4=4 minute inhalation PK10453; D8=8 minute inhalation PK10453; n=4 each group; *p<0.001; **p≦0.01; §p<0.05 vs. V.

PDGFR alpha receptor = molecular target: T1, PDGFR alpha receptor (Homo sapiens, UniProt P16234); assay: Z-lyte in vitro kinase assay (Invitrogen Select Screen); format: biochemical; conditions: ATP Km
T1 construct: purchased Invitrogen (Select Screen service)

[3] = Systemic blood pressure study in ambulatory MCT treated rats; format: in vivo, rat; conditions: inhaled
Protocol: Systemic Blood Pressure Study.
The effect of PK10453 on systemic BP was studied in ambulatory MCT treated rats with DSI PAC40 transmitters implanted in the descending aorta. Three weeks after administration of MCT 60 mg/kg IP, animals inhaled PK10453 or vehicle three times/day with 4 minute exposure each dose for 7 days. Blood pressure was recorded before each morning dose.

rat MCT model of PAH [4] = assay: Efficacy study in the rat MCT model; format: in vivo
Protocol: Efficacy Study in the Rat MCT Model.
Male Sprague Dawley rats received MCT 60 mg/kg IPMCT, and after 3 weeks, PK10453 or vehicle control were administered by inhalation. Four groups were studied: vehicle control (4 min exposure) and three treatment groups of PK10453 with exposure times 2 minutes (D2), 4 minutes (D4), or 8 minutes (D8) three times a day. These regimens were administered for two weeks. The vehicle consisted of aerosolized IM tosylic acid neutralized with ammonia vapor as described above. The pH of a solution prepared by dissolving captured aerosol particles in water was measured for every dose and was consistently in the range of 5.5-6.0. At the end of the study, the RV systolic pressure (RVSP) was measured, and the heart chambers dissected and weighed.

rat MCT+PN model of PAH [5] = assay: Telemetry study of PA pressure in the rat MCT+PN model; format: in vivo
Protocol: Efficacy Study in the Rat MCT+PN Model.
Pneumonectomy and implantation of a TRM53P telemetry monitor in the pulmonary artery (Telemetry Research, New Zealand and ADInstruments, Colorado) was carried out in rats. Two weeks after MCT, PK10453 was administered three times daily for 1 week. Dosing was begun 2 weeks after MCT rather than 3 weeks, because in this more aggressive model the animals developed PAH more quickly and developed distress sooner than in MCT only treated animals (Pulmokine unpublished data). The two groups underwent 4 minute exposures of either the vehicle control or PK10453. Sampling of PA pressure was performed 5 minutes before each morning dose in ambulatory animals in room air (est. pressure 716 mm Hg based on elev. of animal facility).

PDGFR beta receptor = PDGFR beta receptor (Homo sapiens, UniProt P09619); assay: Z-lyte in vitro kinase assay (Invitrogen Select Screen); format: biochemical; conditions: ATP Km
Protocol: In Vitro Kinase Assay. A Z-lyte kinase assay was performed to determine the inhibition of PDGFRalpha and PDGFRbeta mediated phosphorylation by PK10453. Ten point titration curves were modeled to calculate the IC50 (Invitrogen Select Screen®).

[6] = test system: phospho-ERK1/2 and total ERK1/2; assay: NanoPro immunoassay of lung homogenates, MCT+PN model; format: in vivo, rat; conditions: D4 and D8 groups compared to vehicle
Protocol: (§1) NanoPro Immunoassay. Relative differences in phosphorylated ERK1/2 and STAT isoforms were measured with a NanoPro100® immunoassay system (Protein Simple/Cell Biosciences, CA). See Fan et al., “Nanofluidic proteomic assay for serial analysis of oncoprotein activation in clinical specimens.” Nat Med 15:566-571 (2009).

[7] = Body weight, MCT+PN model (FIG. 11); format: in vivo, rat; conditions: treated vs. vehicle groups
Source text: FIG. 11 is a graphic representation of subject body weight in vehicle administered and PK10453 treated subjects, where squares indicate vehicle treated (n=10), triangles indicate PK10453 D4 group (n=10), and diamonds indicate PK10453 D8 group (n=6).

pSTAT3/STAT3 = assay: NanoPro immunoassay of lung extracts, MCT+PN model; format: in vivo, rat; conditions: D4 and D8 groups compared to vehicle
Protocol: as §1

[8] = Fluorescent imaging of lung distribution of inhaled drug with IR780 tracer; format: in vivo, rat; conditions: inhalation with IR780 tracer, 2 min exposure
Protocol: The spatial distribution of inhaled PK10453 in the lung was evaluated by fluorescent imaging. For this study, a near IR fluorescent tracer, IR-780, was added to the drug solution in the nebulizer. In this way, the dried aerosol particles contained both the drug and IR tracer. After a two minute exposure, animals were placed under general anesthesia underwent intubation via tracheostomy, and the lungs were excised. OCT/PBS was infused via the pulmonary artery, the lung insufflated with air, and the lungs frozen in the vapor phase of liquid nitrogen. Serial approximate 2 mm sections of the lung were made and imaged on a Licor Odyssey Imager.

rat MCT+PN model of PAH [9] = assay: Histology and morphometric analysis of pulmonary arterioles, MCT+PN model; format: in vivo
Source text: Histology and Morphometric Analysis.
At the end of the study, the heart and lungs were removed from ventilated animals under general anesthesia. Heparinized saline was infused under pressure through the main pulmonary artery. The right upper lobe was immediately tied off and placed in liquid nitrogen for Western blot and NanoPro 100 assay analysis. The heart was removed, and the RV free wall, interventricular septum and LV free wall dissected and weighed. Buffered formalin (10%) was infused under pressure both through the pulmonary artery and the trachea. Morphometric analysis was performed on H&E stained formalin fixed tissue sectioned at 8 μm. The media area and lumen area of pulmonary arterioles were measured with Image J software by a technician blinded to treatment group. Measurements were made on 20 pulmonary arterioles per section. The ratio of the lumen area to the total media area was determined. This ratio normalizes the variation in total pulmonary arteriole area.

[10] = Two chamber plethysmography, rat MCT+PN model; format: in vivo; conditions: for TV / MV: MCT+PN, mean
Protocol: Plethysmography was performed with an EMKA dual chamber plethysmograph and IOX software. Parameters measured included breathing frequency, tidal volume, minute ventilation, peak inspiratory and expiratory flow, and airway resistance (SRaw). Animals were acclimatized to the plethysmograph for three days prior to first data acquisition. Measurements were made prior to the first dose of drug and at the study's end.

[11] = Pharmacokinetic study, IV vs inhalation, lung and plasma; format: in vivo, rat; conditions: for AUC: rat
Protocol: PK10453 was administered intravenously or by inhalation to animals, which were then euthanized at time 0, 10, 20, and 60 minutes (n=3 each time point). Blood samples were taken by cardiac puncture, and the lungs excised. The lungs were homogenized and PK10453 extracted with a 1:3 mixture of acetonitrile:methanol. Similarly, plasma was extracted with a 1:3 mixture of acetonitrile:methanol. Drug was assayed by LC MS/MS (PharmOptima Inc., Portage Mich.). First order exponential curves were fit to the data with Excel. The AUC was determined with the trapezoidal method of integration.
For the pharmacokinetic study, the concentration of PK10453 in lung when administered by inhalation was compared to the concentration achieved with IV administration. As described in Morén “Aerosols in medicine: principles, diagnosis, and therapy.” Amsterdam; New York: Elsevier. xx, 429 (1993) and Phalen et al., “Inhalation exposure methodology.” Environ Health Perspect 56:23-34 (1984)), it is possible to estimate the pharmacokinetic advantage of inhalation relative to intravenous administration, Rd, by comparing the areas under the curve (AUC) of a plot of the drug concentration as a function of time following respiratory and intravenous (IV) administration:
Rd=[(AUClung/AUCplasma)respiratory]/[(AUClung/AUCplasma)IV]

PASMCs = conditions: cited from earlier work
phospho-ERK1/2 = conditions: rat MCT model; cited from earlier work
rat MCT model of PAH [12] = conditions: cited from earlier work
patients with PAH = conditions: cited from earlier work

Sequence of PDGFR beta receptor (P09619 33-1106): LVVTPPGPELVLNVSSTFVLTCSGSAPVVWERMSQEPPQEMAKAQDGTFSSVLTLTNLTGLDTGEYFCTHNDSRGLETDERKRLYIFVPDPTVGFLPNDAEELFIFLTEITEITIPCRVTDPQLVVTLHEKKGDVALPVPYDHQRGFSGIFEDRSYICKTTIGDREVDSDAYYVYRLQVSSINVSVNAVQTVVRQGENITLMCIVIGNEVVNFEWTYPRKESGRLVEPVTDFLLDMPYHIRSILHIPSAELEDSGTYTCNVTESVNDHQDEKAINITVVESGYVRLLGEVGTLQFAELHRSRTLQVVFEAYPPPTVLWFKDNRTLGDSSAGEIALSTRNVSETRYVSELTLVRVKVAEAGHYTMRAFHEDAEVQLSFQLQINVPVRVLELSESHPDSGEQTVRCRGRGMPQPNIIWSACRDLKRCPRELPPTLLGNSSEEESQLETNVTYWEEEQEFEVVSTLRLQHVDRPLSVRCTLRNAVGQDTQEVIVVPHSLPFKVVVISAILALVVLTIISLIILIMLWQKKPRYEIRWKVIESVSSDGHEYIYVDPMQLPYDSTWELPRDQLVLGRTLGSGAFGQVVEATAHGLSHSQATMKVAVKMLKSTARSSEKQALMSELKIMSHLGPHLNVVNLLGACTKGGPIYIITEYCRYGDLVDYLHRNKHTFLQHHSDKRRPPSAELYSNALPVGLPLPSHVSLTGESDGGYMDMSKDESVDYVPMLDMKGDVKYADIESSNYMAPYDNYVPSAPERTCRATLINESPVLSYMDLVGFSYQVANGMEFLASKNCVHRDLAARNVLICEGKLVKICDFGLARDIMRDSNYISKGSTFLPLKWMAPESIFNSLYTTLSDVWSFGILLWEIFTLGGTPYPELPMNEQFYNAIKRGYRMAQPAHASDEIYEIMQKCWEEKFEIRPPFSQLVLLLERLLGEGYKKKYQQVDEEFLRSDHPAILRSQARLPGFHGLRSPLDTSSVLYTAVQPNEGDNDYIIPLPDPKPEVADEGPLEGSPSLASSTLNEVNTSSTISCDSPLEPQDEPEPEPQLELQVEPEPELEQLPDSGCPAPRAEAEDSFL
T1 sequence (P16234 24-1089): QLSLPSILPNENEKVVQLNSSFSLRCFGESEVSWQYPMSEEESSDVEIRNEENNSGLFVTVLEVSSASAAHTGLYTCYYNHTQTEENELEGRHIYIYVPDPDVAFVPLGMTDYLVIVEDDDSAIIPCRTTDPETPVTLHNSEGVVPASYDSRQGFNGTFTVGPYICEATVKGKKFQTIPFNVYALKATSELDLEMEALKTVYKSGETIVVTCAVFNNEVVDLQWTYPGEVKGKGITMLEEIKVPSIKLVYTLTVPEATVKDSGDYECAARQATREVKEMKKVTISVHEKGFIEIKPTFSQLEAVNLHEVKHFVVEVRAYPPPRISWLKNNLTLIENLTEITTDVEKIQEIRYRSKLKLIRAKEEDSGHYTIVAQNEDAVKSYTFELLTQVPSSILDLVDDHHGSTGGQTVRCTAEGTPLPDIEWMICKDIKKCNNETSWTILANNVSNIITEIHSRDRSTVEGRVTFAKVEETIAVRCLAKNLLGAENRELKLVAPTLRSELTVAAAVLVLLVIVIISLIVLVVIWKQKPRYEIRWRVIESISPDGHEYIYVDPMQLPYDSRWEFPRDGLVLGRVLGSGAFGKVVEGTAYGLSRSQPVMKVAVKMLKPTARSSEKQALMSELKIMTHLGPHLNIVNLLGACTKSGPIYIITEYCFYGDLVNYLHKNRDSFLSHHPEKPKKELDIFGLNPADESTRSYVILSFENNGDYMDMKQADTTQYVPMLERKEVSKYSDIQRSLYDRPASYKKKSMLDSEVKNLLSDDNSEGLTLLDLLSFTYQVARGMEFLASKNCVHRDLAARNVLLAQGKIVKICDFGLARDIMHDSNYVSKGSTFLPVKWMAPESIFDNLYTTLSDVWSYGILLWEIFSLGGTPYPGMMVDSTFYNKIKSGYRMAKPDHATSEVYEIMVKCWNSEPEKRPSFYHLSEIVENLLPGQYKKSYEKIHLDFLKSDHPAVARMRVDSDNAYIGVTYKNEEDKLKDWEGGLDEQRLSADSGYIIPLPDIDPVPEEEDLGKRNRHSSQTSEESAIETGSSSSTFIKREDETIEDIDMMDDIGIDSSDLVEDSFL

## COc1cc(-c2cncc(N[C@@H](C)c3cccc(NC(=O)c4cncc(C)c4)c3)n2)ccc1O [PK10453, (S)—N-(3-(1-((6-(4-hydroxy-3-methoxyphenyl)pyrazin-2yl)amino)ethyl)phenyl)-5-methylnicotinamide]
[1]
  IC50: < 500 nM
Rat MCT+PN model of PAH [2]; D4 MCT+PN group (n=4)
  RVSP: 43.2±6.1 mm Hg
Rat MCT+PN model of PAH [2]; D8 MCT+PN group (n=4)
  RVSP: 38.4±1.4 mm Hg
Rat MCT+PN model of PAH [2]; D4, 4 minute inhalation 3x/day, two weeks
  HR: 288 bpm
Rat MCT+PN model of PAH [2]; D4
  EF: 65.4**
  ESP: 43.20* mm Hg
  CO: 77.59 mL/min
  EDP: 2.62§ mm Hg
  EDV: 408.95 µL
  ESV: 144.14 µL
  SV: 264.81 µL
  SW: 9818
Rat MCT+PN model of PAH [2]; D8, 8 minute inhalation 3x/day, two weeks
  HR: 315 bpm
Rat MCT+PN model of PAH [2]; D8
  EF: 67.1**
  ESP: 38.44* mm Hg
  CO: 105.1** ml/min
  EDP: 4.87 mm Hg
  EDV: 488.68 µL
  ESV: 155.40 µL
  SV: 333.28** μl
  SW: 5481
Rat MCT+PN model of PAH [2]; rat MCT+PN, inhaled, two weeks
  RV hypertrophy: significant decrease
PDGFR alpha receptor
  IC50: 21 nM
[3]
  effect on systemic blood pressure: did not have an adverse effect; also recorded: no significant effect
Rat MCT model of PAH [4]; D2, 2 min inhalation three times a day, two weeks
  RVSP: 51.4±6.5 mm Hg
Rat MCT model of PAH [4]; D4
  reduction in RVSP compared to vehicle: 44%
Rat MCT model of PAH [4]; D4, 4 min inhalation three times a day, two weeks
  RVSP: 44.4±3.8 mm Hg
Rat MCT model of PAH [4]; D8
  reduction in RVSP compared to vehicle: 54%
Rat MCT model of PAH [4]; D8, 8 min inhalation three times a day, two weeks
  RVSP: 37.1±4.5 mm Hg
Rat MCT model of PAH [4]; inhaled, dose group not stated
  decrease of RV systolic pressure: 50%
Rat MCT model of PAH [4]; inhaled, two weeks
  RV hypertrophy, ratio (RV+IVS)/LV weight: significant reduction
Rat MCT+PN model of PAH [5]; 4 min exposure 3x/day, after five days of treatment
  PA systolic pressure: 47.3±3.0 mm Hg
Rat MCT+PN model of PAH [5]; 4 min exposure 3x/day, treatment day 8
  PA systolic pressure: 47.3±4.9 mm Hg
Rat MCT+PN model of PAH [5]; day 0 prior to start of treatment
  PA systolic pressure: 43.1±3.5 mm Hg
PDGFR beta receptor
  IC50: 15 nM
[6]
  pERK1/ERK1: significant reductions
  ppERK1/ERK1: significant reductions
[7]
  body weight: trend to a slower rate of decline
pSTAT3/STAT3
  pSTAT3/STAT3 ratio: significant reduction
[8]
  fluorescence intensity distribution in lung sections: well distributed throughout the lungs
Rat MCT+PN model of PAH [9]; D4
  lumen area to media area ratio (L/M): 0.75±0.14
Rat MCT+PN model of PAH [9]; D8
  lumen area to media area ratio (L/M): 1.17±0.07
[10]; D4, Day1, prior to first dose
  TV: 1.00 mL
[10]; D4, Day15
  MV: 176.12§ ml/min
  TV: 0.85 mL
[10]; D8, Day1, prior to first dose
  TV: 0.74 mL
[10]; D8, Day15
  MV: 128.49 mL/min
  TV: 0.63 mL
[10]; inhaled, 2 wk administration course
  effect on lung function: did not appear to adversely affect; also recorded: no adverse effect
[11]; Lung (INH)
  A of Y = AEXP(-bX): 2498 ng/g lung
  b of Y = AEXP(-bX): 0.03 min⁻¹
[11]; Lung (IV)
  A of Y = AEXP(-bX): 440 ng/g lung
  b of Y = AEXP(-bX): 0.06 min⁻¹
[11]; Plasma (INH)
  A of Y = AEXP(-bX): 132.7 ng/g lung
  b of Y = AEXP(-bX): 0.07 min⁻¹
[11]; Plasma (IV)
  A of Y = AEXP(-bX): 1260 ng/g lung
  b of Y = AEXP(-bX): 0.07 min⁻¹
  AUC: 617 ng·h/mL
[11]; [(AUClung/AUCplasma)respiratory]/[(AUClung/AUCplasma)IV]
  Rd, pharmacokinetic advantage of inhalation relative to IV: 44.6 fold and 45 fold and 44.58 fold
[11]; inhaled, Plasma (INH)
  AUC: 65.5 ng·h/mL

## Cc1ccc(NC(=O)c2ccc(CN3CCN(C)CC3)cc2)cc1Nc1nccc(-c2cccnc2)n1 [imatinib]
PASMCs
  migration of PASMCs: inhibited
phospho-ERK1/2
  phospho-ERK1/2: reduction
Rat MCT model of PAH [12]
  RVSP: decreased
  survival: improved
Patients with PAH; 6 month period, US 2011/0190313
  primary efficacy parameter (6MWD) compared with placebo: did not improve
Patients with PAH; IMPRES trial, patients with severe PAH
  6-min walk distance: improvement
